The text below walks through data of patent US4732989A, “Substituted alkyl imidazole derivatives” (G. D. Searle & Co., priority 1986, dated 1988).

Structures are written as SMILES. Values after ≈ are worked out from the molar mass of the structure shown. Where a name gives a salt, the structure may show the parent alone.

In one test the test system is B. Fragilis NCTC 10581. Briefly: MIC/MBC anti-anaerobic screen, strain A. The format is cell-based, Bacteroides fragilis. To be noted: 37° C.; for MIC: Bacteroides fragilis, NCTC10581, 48 h, read-out: Minimum Inhibitory Concentration (MIC). Here is the method: (§1) The screening panel utilized in this Example consisted of 5 strains of Bacteroides fragilis. All assays were carried out in 96 well microtitre plates. If an isolate was obtained from either a culture collection or clinical source, the isolate was immediately inoculated into Wilkins-Chalgren broth (Oxoid) and incubated at 37° C. in an anaerobic chamber in an atmosphere of 85% nitrogen, 10% carbon dioxide, and 5% hydrogen for 48 hours. At the end of this time, the viable count was about 10^12 organisms/ml broth. A 1 ml aliquot of each culture was placed in an ampoule and quick frozen in an acetone-dry-ice mixture and stored in liquid nitrogen. When an inoculum was utilized in an assay, one of the ampoules was thawed and diluted with fresh broth to yield a suspension having a count of 5×10^5 organisms/ml. 100 ul of the suspension was inoculated into each well of the microtitre plate. 2 mg of the test compound was dissolved on 0.2 ml of a suitable solvent such as dimethylsulphoxide, polyethylene glycol 200 or methanol. […] After addition of the test solution, the final inoculum level is 10^5 cells/ml. The plates were incubated for 48 hours at 37° C. in the anaerobic chamber. The Minimum Inhibitory Concentration (MIC) was read visually. The MIC is defined as the lowest concentration at which there is no detectable growth. The Minimum Bactericidal Concentration (MBC) was determined by taking a 50 ul aliquot from each well and placing it in fresh medium.

The test system of the next test is B. Fragilis WS-1. Briefly: MIC/MBC anti-anaerobic screen, strain E. The test is classed as cell-based. Conditions: Bacteroides fragilis, 48 h; for MIC: 37° C., anaerobic, read-out: Minimum Inhibitory Concentration (MIC). Here is the method:
as §1

A further test concerns B. Fragilis NCTC 9343. As to the kind of experiment: MIC/MBC anti-anaerobic screen, strain B. The format is cell-based. Conditions: Bacteroides fragilis, NCTC9343, 48 h, 37° C., read-out: Minimum Inhibitory Concentration (MIC). Here is the method:
as §1

For another test, the system named is B. Fragilis NCTC 9344. Briefly: MIC/MBC anti-anaerobic screen, strain C. The test is classed as cell-based. To be noted: Bacteroides fragilis, NCTC9344, 48 h, 37° C., read-out: Minimum Inhibitory Concentration (MIC). Here is the method: as §1
Another test deals with B. Fragilis ATCC 11295. Briefly: MIC/MBC anti-anaerobic screen, strain D. The test is classed as cell-based. Conditions: Bacteroides fragilis, ATCC11295, 48 h, 37° C., read-out: Minimum Inhibitory Concentration (MIC). The method, then: as §1

In the case of `Clc1ccccc1N1CCN=C1C(Cn1ccnc1)c1ccccc1` (centres unmarked) [Example 1, 1-(2-Chlorophenyl)-4,5-dihydro-2[2-(imidazol-1-yl)-1-phenylethyl)imidazole], the MIC in the test on B. Fragilis NCTC 10581 was found to be 3.1 µg/mL (≈ 8.84 µM).

For `Brc1ccc(N2CCN=C2C(Cn2ccnc2)c2ccccc2)c(Br)c1` (centres unmarked) [Example 2, 1-(2,4-Dibromophenyl)-4,5-dihydro-2-[2-(imidazol-1-yl)-1-phenylethyl]imidazole dihydrochloride], the MIC in the test with B. Fragilis NCTC 10581 is 0.8 µg/mL; with B. Fragilis WS-1 it was 0.8 µg/mL; with B. Fragilis NCTC 9343, 3.1 µg/mL.

In the case of `Clc1ccc(N2CCN=C2C(Cn2ccnc2)c2ccccc2)c(Cl)c1` (centres unmarked) [Example 3, 1-(2,4-Dichlorophenyl)-4,5-dihydro-2-[2-(imidazol-1-yl)-1-phenylethyl]imidazole hydrochloride], the MIC with B. Fragilis NCTC 9344, with B. Fragilis NCTC 10581 and with B. Fragilis ATCC 11295 was 0.8 µg/mL throughout. The MBC in the test with B. Fragilis WS-1 (99.9% reduction in viable count, read-out: Minimum Bactericidal Concentration (MBC)) is 3.1 µg/mL.

As for `Clc1ccc(CN2CCN=C2C(Cn2ccnc2)c2ccccc2)c(Cl)c1` (centres unmarked) [Example 15, 1-(2,4-Dichlorophenylmethyl)-4,5-dihydro-2-[2-(imidazol-1-yl)-1-phenylethyl]imidazole], the MIC in the test on B. Fragilis NCTC 9344, in the test with B. Fragilis NCTC 10581, in the test with B. Fragilis NCTC 9343 and in the test with B. Fragilis ATCC 11295 was 3.1 µg/mL (≈ 7.76 µM) each time.

Turning to `Clc1ccc(CN2CCN=C2C(Cn2cccn2)c2ccccc2)c(Cl)c1` (centres unmarked) [Example 16, 1-(2,4-Dichlorophenylmethyl)-4,5-dihydro-2-[1-phenyl-2-(pyrazol-1-yl)ethyl]imidazole dihydrochloride], the MIC came out at 3.1 µg/mL in the test with B. Fragilis NCTC 9344 and 2.5 µg/mL in the test on B. Fragilis NCTC 10581.

As to `CCCCCCCCN1CCN=C1C(Cn1ccnc1)c1ccccc1` (centres unmarked) [Example 19, 4,5-Dihydro-2-[2-(imidazol-1-yl)-1-phenylethyl]-1-n-octylimidazole dihydrochloride], the MIC in the test on B. Fragilis NCTC 9343 was 3.1 µg/mL.

As to `Cc1nccn1CC(C1=NCCN1c1ccc(Cl)cc1Cl)c1ccccc1` (centres unmarked) [Example 21, 1-(2,4-Dichlorophenyl)-4,5-dihydro-2-[2-(2-methylimidazol-1-yl)-1-phenylethyl]imidazole dihydrochloride], the results for the MIC in the test on B. Fragilis NCTC 9344, with B. Fragilis WS-1 and in the test on B. Fragilis ATCC 11295 were 0.8 µg/mL, 0.8 µg/mL and 3.1 µg/mL, respectively.

Consider `CSc1nccn1CC(C1=NCCN1c1ccc(Cl)cc1Cl)c1ccccc1` (centres unmarked) [Example 22, 1-(2,4-Dichlorophenyl)-4,5-dihydro-2-[1-phenyl-2-(2-thiomethylimidazol-1-yl)ethyl]imidazole dihydrochloride], for which the MIC in the test on B. Fragilis NCTC 9344, in the test with B. Fragilis WS-1 and with B. Fragilis ATCC 11295 was 3.1 µg/mL in each case.

With `CC1=NCCN1CC(C1=NCCN1c1ccc(Cl)cc1Cl)c1ccccc1` (centres unmarked) [Example 23, 1-(2,4-Dichlorophenyl)-4,5-dihydro-2-[2-(4,5-dihydro-2-methylimidazol-1-yl)-1-phenylethyl]imidazole dihydrochloride], the MIC in the test with B. Fragilis WS-1 was 0.8 µg/mL.

For `CCCCCCCCCCN1CCN=C1C(Cn1ccnc1)c1ccccc1.Cl.Cl` (centres unmarked) [Example 26, 1-n-Decyl-4,5-dihydro-2-[2-(imidazol-1-yl)-1-phenylethyl]imidazole dihydrochloride], the MIC in the test with B. Fragilis NCTC 9344, in the test on B. Fragilis WS-1 and with B. Fragilis ATCC 11295 was 3.1 µg/mL each time.

Regarding `Cc1ncc([N+](=O)[O-])n1CCO` [Metronidazole, reference compound], the “Minimum Inhibitory Concentration (MIC)” value with B. Fragilis NCTC 10581 (48 hours) amounted to 0.8 µg/mL.
